Test results published in PubChem BioAssay AID1963985 (Molecular Pharmacology Branch, DTP, NCI, 2024).

System: 252836-082-R-J2-PDC tumor spheroids, viability
Test: Anticancer human tumor 252836-082-R-J2-PDC patient-derived head and neck squamous cell carcinoma cell line growth inhibition [PI3K]
Settings: spheroids with HUVEC and MSC; for IC50: curve of first compound; for viability, T/C: stronger effect = lower value
Description: Combinatorial screen of targeted agents with the PI3K inhibitors inavolisib, alpelisib, duvelisib, and copanlisib in multi-cell type tumor spheroids
A high-throughput screen of multi-cell type tumor spheroids was designed to identify active combinations of targeted small molecules and PI3K pathway inhibitors. Complex spheroids include a stromal component modeled by human endothelial cells (HUVEC) and fibroblasts modeled by human mesenchymal stem cells (MSCs). The concentration ranges selected for each drug and investigational agent were based upon clinically achievable concentrations if the clinical Cmax of the agent was known.
Compounds. The drugs and investigational agents: inavolisib (NSC800729), alpelisib (NSC765974), duvelisib (NSC772469), copanlisib (NSC816437), ipatasertib (NSC767898), afuresertib (NSC778305), talazoparib (NSC767125), sapanisertib (NSC764658), selumetinib (NSC741078), tovorafenib (DAY101, NSC766906), vemurafenib (NSC761431), ravoxertinib (NSC781343), sotorasib (NSC818433), MRTX1133 (NSC 836407), abemaciclib (NSC 768073), palbociclib (NSC758247), venetoclax (NSC 766270), SY5609 (NSC837396), enzalutamide (NSC755605), and darolutamide (NSC825331), were obtained from the National Cancer Institute (NCI) Developmental Therapeutics Program Chemical Repository. The FDA-approved anticancer drug set is available from the NCI Developmental Therapeutics Program. […] The stock solutions were prepared in dimethyl sulfoxide (DMSO, Sigma-Aldrich, St. Louis, MO, cat. D2650) at 800-fold the tested concentration and stored at -70 degrees C prior to their use. All drugs and investigational agents were tested over a range starting from a high concentration at or near the clinical Cmax and decreasing in half-log increments. If the clinical Cmax for an agent had not been determined, the highest concentration tested was 10 microM.
Cell Culture. All cells were maintained in an incubator at 37 degrees C and 5% CO2 with 95% humidity. The PDC lines were cultured according to standard operating procedures established by the NCI PDMR (https://pdmr.cancer.gov/sops/default.htm). All PDCs were thawed and cultured in Matrigel-coated flasks prepared with a working solution of 1X Ham's F-12 nutrient mix, without supplementation (Invitrogen, Waltham, MA, cat. 11765054), 100 U/mL penicillin-streptomycin (Invitrogen, cat. 15140122), and 2.5% Matrigel (Corning Inc., Corning, NY, cat. 354248) for the first three passages. The 354836-022-R-J1-PDC, 475296-252-R-J1-PDC, and 997726-040-R-J2-PDC lines were cultured in 6A media, which includes advanced DMEM/F-12 (Thermo Fisher Scientific, cat. 12634028), 10 mM HEPES (Thermo Fisher Scientific, cat. 15630080), 1X GlutaMAX supplement (Thermo Fisher Scientific, cat. 35050061), 0.1 mg/mL primocin (InvivoGen, San Diego, CA, cat. ant-pm-2), 10% defined fetal bovine serum, heat inactivated (HyClone Laboratories Inc., Logan, UT, cat. SH30070.03HI), 50% L-WRN conditioned media (ATCC, cat. CRL-3276), 1.25 mM N-Acetyl-L-cysteine (Sigma-Aldrich, cat. A9165), 10 mM nicotinamide (Sigma-Aldrich, cat. N0636), 1X B-27 supplement (Thermo Fisher Scientific, cat. 17504044), 1X N-2 supplement (Thermo Fisher Scientific, cat. 17502048), and 10 microM Y-27632 dihydrochloride (Tocris Bioscience, Bristol, United Kingdom, cat. 1254). The 624824-186-R-J2-PDC line was cultured in 6C/Colon 1B media, which includes all 6A media components plus 50 ng/mL human EGF recombinant protein (Thermo Fisher Scientific, cat. PHG0311). […]
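Further: spheroids exposed to agents for seven days before readout.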
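Wherever viability, T/C is given: percent of vehicle DMSO control viability so 100% = untreated growth.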

## CC(Cn1ccc(-c2ccc(C#N)c(Cl)c2)n1)NC(=O)c1cc(C(C)O)[nH]n1 (configuration not stated) + COc1c(OCCCN2CCOCC2)ccc2c3n(c(=NC(=O)c4cnc(N)nc4)nc12)CCN3
Second compound 0.00316 µM
  IC50: > 10 µM
Second compound 0.01 µM
  IC50: > 10 µM
Second compound 0.0316 µM
  IC50: > 10 µM
Second compound 0.1 µM
  IC50: < 0.0316 µM
Second compound 0.316 µM
  IC50: < 0.0316 µM
Second compound 1 µM
  IC50: < 0.0316 µM
Second compound 0.00316 µM, first compound 0.0316 µM
  viability, T/C: 102%
Second compound 0.00316 µM, first compound 0.1 µM
  viability, T/C: 90.5%
Second compound 0.00316 µM, first compound 0.316 µM
  viability, T/C: 101%
Second compound 0.00316 µM, first compound 1 µM
  viability, T/C: 94.4%
Second compound 0.00316 µM, first compound 3.16 µM
  viability, T/C: 91.4%
Second compound 0.00316 µM, first compound 10 µM
  viability, T/C: 84.9%
Second compound 0.01 µM, first compound 0.0316 µM
  viability, T/C: 81.7%
Second compound 0.01 µM, first compound 0.1 µM
  viability, T/C: 72.4%
Second compound 0.01 µM, first compound 0.316 µM
  viability, T/C: 87.2%
Second compound 0.01 µM, first compound 1 µM
  viability, T/C: 93.3%
Second compound 0.01 µM, first compound 3.16 µM
  viability, T/C: 93%
Second compound 0.01 µM, first compound 10 µM
  viability, T/C: 68.9%
Second compound 0.0316 µM, first compound 0.0316 µM
  viability, T/C: 65.3%
Second compound 0.0316 µM, first compound 0.1 µM
  viability, T/C: 62.8%
Second compound 0.0316 µM, first compound 0.316 µM
  viability, T/C: 62.6%
Second compound 0.0316 µM, first compound 1 µM
  viability, T/C: 63.9%
Second compound 0.0316 µM, first compound 3.16 µM
  viability, T/C: 68.3%
Second compound 0.0316 µM, first compound 10 µM
  viability, T/C: 56.1%
Second compound 0.1 µM, first compound 0.0316 µM
  viability, T/C: 35.3%
Second compound 0.1 µM, first compound 0.1 µM
  viability, T/C: 43.5%
Second compound 0.1 µM, first compound 0.316 µM
  viability, T/C: 36.6%
Second compound 0.1 µM, first compound 1 µM
  viability, T/C: 45.3%
Second compound 0.1 µM, first compound 3.16 µM
  viability, T/C: 35.6%
Second compound 0.1 µM, first compound 10 µM
  viability, T/C: 41.4%
Second compound 0.316 µM, first compound 0.0316 µM
  viability, T/C: 15.6%
Second compound 0.316 µM, first compound 0.1 µM
  viability, T/C: 15.8%
Second compound 0.316 µM, first compound 0.316 µM
  viability, T/C: 18.3%
Second compound 0.316 µM, first compound 1 µM
  viability, T/C: 20.3%
Second compound 0.316 µM, first compound 3.16 µM
  viability, T/C: 16.3%
Second compound 0.316 µM, first compound 10 µM
  viability, T/C: 16.5%
Second compound 1 µM, first compound 0.0316 µM
  viability, T/C: 5.58%
Second compound 1 µM, first compound 0.1 µM
  viability, T/C: 5.76%
Second compound 1 µM, first compound 0.316 µM
  viability, T/C: 4.24%
Second compound 1 µM, first compound 1 µM
  viability, T/C: 4.31%
Second compound 1 µM, first compound 3.16 µM
  viability, T/C: 6.92%
Second compound 1 µM, first compound 10 µM
  viability, T/C: 5.37%
